This note sets out measurements from article PMC7845594, “Novel Immune Modulators Enhance Caenorhabditis elegans Resistance to Multiple Pathogens” (mSphere, 2021).

“And” between values parts separate entries of the source, which are not always exact repeats. Equal values may be shown once.

The first assay relates to glp-4(bn2) worms exposed to P. aeruginosa isolate PA2-61. The experiment in a line: Liquid killing assay with cystic fibrosis isolate. The class given is in vivo, Caenorhabditis elegans. The conditions noted are these: isolate PA2-61, serial 2-fold dilutions from 50 µM to 12.5 μM.
Experimental: We also tested these strains against a P. aeruginosa isolate from a pediatric cystic fibrosis patient, P. aeruginosa PA2-61, that we previously characterized ([22]).
The minimum effective concentration was calculated from the lowest concentration that retained statistically significant rescue of glp-4(bn2) C. elegans, a temperature-sensitive sterile strain, from exposure to P. aeruginosa PA14. […] Compounds were added in serial 2-fold dilutions from 50 µM to 12.5 μM. *, P < 0.05; **, P < 0.01; ***, P < 0.001. P values were calculated using Student’s t test. At least six wells containing 20 worms each per condition per replicate were used for determination of liquid killing. EC values were calculated based on at least three biological replicates. Error bars represent the standard error of the mean.
Liquid killing of C. elegans was performed as previously described with some changes ([91]). In brief, an overnight culture of LB medium was inoculated with a single colony of Pseudomonas aeruginosa strain PA14. Then, 400 µl of culture was spread onto a 10-cm slow-kill agar plate ([91]) and grown for 24 h at 37°C, followed by 24 h at 25°C. Bacteria were scraped from the plate, resuspended in S Basal medium, and added to 384-well plates with small molecules dissolved in DMSO. Solution in wells contained a final concentration of 40% SK media, 59% S Basal medium, 1% DMSO, and small molecules. For all liquid-based killing assays, solvent control wells contained 1% DMSO. MgSO4 and CaCl2 (300 µM) and cholesterol (1.6 µg/ml) were added to aid in production of virulence factors. Worms were sorted into 384-well plates using a COPAS FlowSort (Union Biometrica, Holliston, MA), incubated at 25°C until the DMSO control was roughly 35 to 55% dead, washed four times using an EL406 microplate washer (BioTek, VT), and stained with 50 μl of Sytox Orange at 1 µM to fluorescently stain dead worms. Wells were imaged in bright-field and RFP channels using the BioTek Cytation5, followed by image analysis using the CellProfiler software package to calculate fraction of dead worms in each well. […]
As for `CN(C)/N=N/c1ccc(-c2cn(Cc3ccccc3)cn2)cc1` [LK38], the “Dose dependence of rescue in liquid killing” value (from here on “Dose dependence of rescue”) is on record as “dose-dependent rescue”.

Turning to `CNC(=O)Oc1c(Br)cc2sc(=O)oc2c1Br` [LK34], the “Dose dependence of rescue” value is reported as “dose-dependent rescue”.

For the compound `O=c1cc(CNc2ccc(Br)cc2)nc2sccn12` [LK56], the “Dose dependence of rescue” value is on record as “dose-dependent rescue”.

A further assay has as its system glp-4(bn2) worms exposed to E. faecalis strain OG1RF. The experiment in a line: E. faecalis infection assay (liquid). As to conditions: E. faecalis, 32 µM. The class given is in vivo, Caenorhabditis elegans. The method, then: Enterococcus faecalis and Staphylococcus aureus are Gram-positive bacterial species frequently responsible for nosocomial infections ([24], [25]). These bacterial species readily infect C. elegans and liquid-based pathogenesis models have been developed for each ([26][–][28]). Sterile, young adult glp-4(bn2) worms were incubated with either E. faecalis or S. aureus and various concentrations of the five compounds. […] Importantly, P. aeruginosa, E. faecalis, and S. aureus use very different mechanisms to kill C. elegans (pyoverdine-mediated mitochondrial damage, gelatinase-mediated damage to the colonized intestine, and multi-toxin-mediated intestinal effacement and damage, respectively) ([29][–][33]). The ability of these compounds to rescue against multiple pathogens that utilize a diverse set of virulence factors and mechanisms of pathogenesis further supports the idea that at least a portion of these compounds’ activity is mediated by stimulating innate immunity.
FIG 2 A subset of LK molecules rescue against E. faecalis and S. aureus. […] Compounds were serially diluted 2-fold, and young adult glp-4(bn2) worms were incubated with the pathogen for 80 h (E. faecalis) or 96 h (S. aureus). The concentrations shown are based on the mean value for at least three replicates. (B and C) Percentages of dead C. elegans after exposure to E. faecalis (B) or S. aureus (C). A representative biological replicate is shown. Each condition included at least six wells per replicate, each well contained approximately 20 worms. Three biological replicates were performed. *, P < 0.05; **, P < 0.01; ***, P < 0.001. P values were calculated using Student’s t test. Error bars represent the standard error of the mean.
The E. faecalis infection assay was performed as previously described ([27]). A single colony was used to inoculate a 5 ml of BHI liquid culture. After 16 to 24 h, 400 µl of this culture was spread on a BHI agar plate and placed at 37°C for 24 h. Next, 384-well plates were made containing 10% BHI, and E. faecalis was removed from the plate by scraping and resuspended in S Basal medium to a final OD of 0.03. Compounds at the desired concentrations or DMSO (final concentration, 1%) were then added to each well. After 3 days, the worms were transferred to new plates using a 0.05% Tween solution to prevent background fluorescence from E. faecalis biofilm. Subsequent washing, staining, imaging, and image analysis was performed identically to Pseudomonas liquid killing. EC values were defined as the minimum concentration that provided statistically significant rescue. At least three biological replicates were performed.
Take `O=c1cc(CNc2ccc(Br)cc2)nc2sccn12` [LK56]: the “Need of MDT-15 for rescue (mdt-15(RNAi))” value is reported as “required”.

The same assay, now with this note: glp-4(bn2) worms, 80 h; ± 95% confidence interval.
With `CN(C)/N=N/c1ccc(-c2cn(Cc3ccccc3)cn2)cc1` [LK38], the “E. faecalis EC” value was greater than 64 µM.

As for `CNC(=O)Oc1c(Br)cc2sc(=O)oc2c1Br` [LK34], the “E. faecalis EC” value is 18.7 µM and 18.7 ± 8.7 µM.

Turning to `CCN(CC)/N=N/c1ccc(C(=O)O)cc1` [LK35], the “E. faecalis EC” value was greater than 64 µM.

Take `O=c1cc(CNc2ccc(Br)cc2)nc2sccn12` [LK56]: the “E. faecalis EC” value is 10.7 µM and 10.7 ± 3.3 µM.

For the compound `COC(=O)/C=C/C(=O)Nc1ccccc1` [LK32], the “E. faecalis EC” value is 8 µM and 8 ± 0.0 µM.
